Test results taken from PubChem BioAssay (NCI).
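Values below derive from 48-hour exposures of cells grown in 96-well plates, with endpoints linearly interpolated between the two concentrations bracketing the appropriate inhibition level. Here, GI50 denotes the concentration required for 50% inhibition of growth. At the TGI there is no net growth.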

How the values were obtained:
Assay in all cases: NCI-60 cell line screen, 48 h
[1] = test system: M14 melanoma
[2] = test system: SN12C renal
[3] = test system: K-562 leukemia
[4] = test system: KM12 colon
[5] = test system: NCI-H522 lung
[6] = test system: OVCAR-3 ovarian
[7] = test system: HL-60(TB) leukemia
[8] = test system: EKVX NSCLC
[9] = test system: CAKI-1 renal
[10] = test system: HCT-15 colon
[11] = test system: ACHN renal
[12] = test system: NCI-H460 lung
[13] = test system: NCI-H23 lung
[14] = test system: MCF7 breast
[15] = test system: HOP-92 NSCLC
[16] = test system: SF-295 CNS
[17] = test system: SK-MEL-5 melanoma
[18] = test system: MDA-MB-435
[19] = test system: NCI-H226 lung
[20] = test system: OVCAR-5 ovarian
[21] = test system: SF-268 CNS
[22] = test system: HOP-62 NSCLC
[23] = test system: 786-0 renal
[24] = test system: OVCAR-8 ovarian
[25] = test system: IGROV1 ovarian
[26] = test system: RXF 393 renal
[27] = test system: LOX IMVI melanoma
[28] = test system: T-47D breast
[29] = test system: HCT-116 colon
[30] = test system: U251 CNS
[31] = test system: SNB-19 CNS
[32] = test system: COLO 205 colon
[33] = test system: UO-31 renal
[34] = test system: SK-MEL-28 melanoma
[35] = test system: UACC-62 melanoma
[36] = test system: SK-MEL-2 melanoma
[37] = test system: A549 NSCLC
[38] = test system: UACC-257 melanoma
[39] = test system: BT-549 breast
[40] = test system: HT29 colon
[41] = test system: PC-3 prostate
[42] = test system: MDA-MB-231 breast
[43] = test system: TK-10 renal
[44] = test system: NCI/ADR-RES ovarian
[45] = test system: SW-620 colon
[46] = test system: MOLT-4 leukemia
[47] = test system: HS 578T breast
[48] = test system: SNB-75 CNS
[49] = test system: SR leukemia
[50] = test system: A498 renal
[51] = test system: RPMI-8226 leukemia
[52] = test system: SF-539 CNS
[53] = test system: CCRF-CEM leukemia
[54] = test system: DU-145 prostate
[55] = test system: MALME-3M melanoma
[56] = test system: SK-OV-3 ovarian
[57] = test system: OVCAR-4 ovarian

With `Oc1ccc(O)c(-c2cc(-c3ccccc3)nn2-c2ccccc2)c1` the GI50 [1] was 12.4 µM, the TGI [1] was 25.4 µM and the GI50 [2] was 17 µM. For the same compound, the TGI [2] was 45 µM, the GI50 [3] was 21.7 µM and the TGI [3] was > 100 µM. For the same compound, the GI50 [4] was 19.6 µM, the TGI [4] was > 100 µM and the GI50 [5] was 31 µM. For the same compound, the TGI [5] was > 100 µM, the GI50 [6] was 22.8 µM and the TGI [6] was > 100 µM. The GI50 [7] was 24.9 µM, the TGI [7] was > 100 µM and the GI50 [8] was 16.9 µM. The TGI [8] was 37.7 µM, the GI50 [9] was 30.6 µM and the TGI [9] was > 100 µM. The GI50 [10] was 17 µM, the TGI [10] was 42.6 µM and the GI50 [11] was 14.4 µM. The TGI [11] was 29.7 µM, the GI50 [12] was 24.8 µM and the TGI [12] was > 100 µM. For the same compound, the GI50 [13] was 14.3 µM, the TGI [13] was 32.5 µM and the GI50 [14] was 6.55 µM. The TGI [14] was > 100 µM, the GI50 [15] was 88.9 µM and the TGI [15] was > 100 µM. The GI50 [16] was 28.5 µM, the TGI [16] was > 100 µM and the GI50 [17] was 30.7 µM. The TGI [17] was > 100 µM, the GI50 [18] was 18.4 µM and the TGI [18] was > 100 µM. For the same compound, the GI50 [19] was 18.7 µM, the TGI [19] was 51.4 µM and the GI50 [20] was 10.6 µM. The TGI [20] was 27 µM, the GI50 [21] was 16.4 µM and the TGI [21] was 64.8 µM. The GI50 [22] was 16.8 µM, the TGI [22] was 32.3 µM and the GI50 [23] was 12.2 µM. For the same compound, the TGI [23] was 25.2 µM, the GI50 [24] was 17.2 µM and the TGI [24] was 74 µM. For the same compound, the GI50 [25] was > 100 µM, the TGI [25] was > 100 µM and the GI50 [26] was 31.3 µM. For the same compound, the TGI [26] was > 100 µM, the GI50 [27] was 10.2 µM and the TGI [27] was 25 µM. It also gave a GI50 [28] of 19.6 µM, a TGI [28] of 98.4 µM and a GI50 [29] of 9.71 µM. It also gave a TGI [29] of 21.8 µM, a GI50 [30] of 5.7 µM and a TGI [30] of 19.9 µM. The GI50 [31] was 23.9 µM, the TGI [31] was > 100 µM and the GI50 [32] was 24.9 µM. For the same compound, the TGI [32] was > 100 µM, the GI50 [33] was 38.6 µM and the TGI [33] was > 100 µM. For the same compound, the GI50 [34] was 40.8 µM, the TGI [34] was > 100 µM and the GI50 [35] was 11.9 µM. The TGI [35] was 44.9 µM, the GI50 [36] was 34 µM and the TGI [36] was > 100 µM. The GI50 [37] was 17.3 µM, the TGI [37] was 80.9 µM and the GI50 [38] was 18 µM. It also gave a TGI [38] of 52.1 µM, a GI50 [39] of 13.4 µM and a TGI [39] of 33.7 µM. The GI50 [40] was 73.9 µM, the TGI [40] was > 100 µM and the GI50 [41] was 16.7 µM. For the same compound, the TGI [41] was > 100 µM, the GI50 [42] was 30.3 µM and the TGI [42] was > 100 µM. The GI50 [43] was 14 µM, the TGI [43] was 71 µM and the GI50 [44] was 11.5 µM. The TGI [44] was 29.7 µM, the GI50 [45] was 26 µM and the TGI [45] was > 100 µM. For the same compound, the GI50 [46] was 60.5 µM, the TGI [46] was > 100 µM and the GI50 [47] was 19.6 µM. It also gave a TGI [47] of 68 µM.

For `Nc1ccc(N=Nc2ccc(-c3ccc(O)cc3)cc2)c2ccc(S(=O)(=O)O)cc12`, the TGI [1] was > 100 µM, the TGI [48] was > 100 µM and the TGI [2] was > 100 µM. The TGI [3] was > 100 µM, the TGI [4] was > 100 µM and the TGI [5] was > 100 µM. The TGI [6] was > 100 µM, the TGI [7] was > 100 µM and the TGI [8] was > 100 µM. For the same compound, the TGI [9] was > 100 µM, the TGI [10] was > 100 µM and the TGI [11] was > 100 µM. For the same compound, the TGI [12] was > 100 µM, the TGI [13] was > 100 µM and the TGI [14] was > 100 µM. The TGI [15] was > 100 µM, the TGI [49] was > 100 µM and the TGI [16] was > 100 µM. The TGI [17] was > 100 µM, the TGI [18] was > 100 µM and the TGI [19] was > 100 µM. The TGI [20] was > 100 µM, the TGI [21] was > 100 µM and the TGI [22] was > 100 µM. For the same compound, the TGI [23] was > 100 µM, the TGI [24] was > 100 µM and the TGI [25] was > 100 µM. For the same compound, the TGI [26] was > 100 µM, the TGI [50] was > 100 µM and the TGI [51] was > 100 µM. For the same compound, the TGI [27] was > 100 µM, the TGI [52] was > 100 µM and the TGI [28] was > 100 µM. For the same compound, the TGI [29] was > 100 µM, the TGI [30] was > 100 µM and the TGI [53] was > 100 µM. The TGI [54] was > 100 µM, the TGI [31] was > 100 µM and the TGI [32] was > 100 µM. For the same compound, the TGI [33] was > 100 µM, the TGI [55] was > 100 µM and the TGI [34] was > 100 µM. The TGI [35] was > 100 µM, the TGI [36] was > 100 µM and the TGI [56] was > 100 µM. The TGI [37] was > 100 µM, the TGI [38] was > 100 µM and the TGI [39] was > 100 µM. For the same compound, the TGI [40] was > 100 µM, the TGI [41] was > 100 µM and the TGI [42] was > 100 µM. The TGI [57] was > 100 µM, the TGI [43] was > 100 µM and the TGI [44] was > 100 µM. The TGI [45] was > 100 µM, the TGI [46] was > 100 µM and the TGI [47] was > 100 µM.
